From patent publication US20260193271A1, “PAN-KRAS INHIBITOR COMPOUND” (ADLAI NORTYE BIOPHARMA CO., LTD., priority 2022, published 2026) come the findings set out here.

The test system of one experiment is AsPC-1 (G12D). Nature of the experiment: In vitro cell proliferation inhibition test (CellTiter-Glo), AsPC-1. The class given is cell-based. Particulars: KRAS (p.G12D), 72 h co-incubation. Put shortly: (§1)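 Cells were seeded at 1000-5000/well by doubling time and cultured overnight at 37 °C, 5% CO2. They were then exposed for 72 h to 10-point, 3-fold compound dilutions (final top 10 μM), and viability was read by CellTiter-Glo luminescence. IC50 came from normalized signals fitted by four-parameter regression.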

Another experiment deals with SW480 (G12V). The experiment is described as follows: In vitro cell proliferation inhibition test (CellTiter-Glo), SW480. It is filed as cell-based. Conditions: SW480 colon cell line, KRAS (p.G12V), 72 h co-incubation. The method in brief:
as §1

Where [1] appears, read: Homo sapiens, ASPC1, AsPC-1 pancreas cell line.

Molecules are shown by their SMILES. Where only a bound is given, the exact number is not on record here.

On to `CCn1c(-c2cc(-c3cnc(OC4CCN(C)CC4)nc3)cnc2[C@H](C)OC)c2c3cc(ccc31)-c1csc(n1)C[C@H](NC(=O)[C@H]1C[C@@H]1C)C(=O)N1CCC[C@H](N1)C(=O)OCC(C)(C)C2` (atropisomer, axis not shown) [Compound 60, (1S,2S)-N-((6^3S,4S,Z)-1^1-ethyl-1^2-(2-((S)-1-methoxyethyl)-5-(2-((1-methylpiperidin-4-yl)oxy)pyrimidin-5-yl)pyridin-3-yl)-10,10-dimethyl-5,7-dioxo-6^1,6^2,6^3,6^4,6^5,6^6-hexahydro-1^1H-8-oxa-2(4,2)-thiazola-1(5,3)-indola-6(1,3)-pyridazinacycloundecaphane-4-yl)-2-methylcyclopropane-1-carboxamide], for which the IC50 (in general, the concentration at which inhibition is half-maximal) was 1.6 nM with AsPC-1 (G12D) (setting [1]) and 12 nM in the experiment with SW480 (G12V) (Homo sapiens).

`CCn1c(-c2cc(-c3cnc(CN4CCN5CCOC[C@@H]5C4)nc3)cnc2[C@H](C)OC)c2c3cc(ccc31)-c1csc(n1)C[C@H](NC(=O)[C@H]1C[C@@H]1C)C(=O)N1CCC[C@H](N1)C(=O)OCC(C)(C)C2` (atropisomer, axis not shown) [Compound 61, (1S,2S)-N-((6^3S,4S,Z)-1^1-ethyl-1^2-(5-(2-(((S)-hexahydropyrazino[2,1-c][1,4]oxazin-8(1H)-yl)methyl)pyrimidin-5-yl)-2-((S)-1-methoxyethyl)pyridin-3-yl)-10,10-dimethyl-5,7-dioxo-6^1,6^2,6^3,6^4,6^5,6^6-hexahydro-1^1H-8-oxa-2(4,2)-thiazola-1(5,3)-indola-6(1,3)-pyridazinacycloundecaphane-4-yl)-2-methylcyclopropane-1-carboxamide]: the figures for the IC50 with AsPC-1 (G12D) (setting [1]) and in the experiment on SW480 (G12V) (Homo sapiens) were 19 nM and 20 nM, respectively.

In the case of `CCn1c(-c2cc(-c3cnn(C4CCN(C)CC4)c3)cnc2[C@H](C)OC)c2c3cc(ccc31)-c1csc(n1)C[C@H](NC(=O)[C@H]1C[C@@H]1C)C(=O)N1CCC[C@H](N1)C(=O)OCC(C)(C)C2` (atropisomer, axis not shown) [Compound 63, (1S,2S)-N-((6^3S,4S,Z)-1^1-ethyl-1^2-(2-((S)-1-methoxyethyl)-5-(1-(1-methylpiperidin-4-yl)-1H-pyrazol-4-yl)pyridin-3-yl)-10,10-dimethyl-5,7-dioxo-6^1,6^2,6^3,6^4,6^5,6^6-hexahydro-1^1H-8-oxa-2(4,2)-thiazola-1(5,3)-indola-6(1,3)-pyridazinacycloundecaphane-4-yl)-2-methylcyclopropane-1-carboxamide], the IC50 with AsPC-1 (G12D) (setting [1]) is 48 nM; with SW480 (G12V) (Homo sapiens), 71 nM.

As to `CCn1c(-c2cc(-c3cnc(CN4CCOCC4)nc3)cnc2[C@H](C)OC)c2c3cc(ccc31)-c1csc(n1)C[C@H](NC(=O)[C@H]1C[C@@H]1C)C(=O)N1CCC[C@H](N1)C(=O)OCC(C)(C)C2` (atropisomer, axis not shown) [Compound 66, (1S,2S)-N-((6^3S,4S,Z)-1^1-ethyl-1^2-(2-((S)-1-methoxyethyl)-5-(2-(morpholinomethyl)pyrimidin-5-yl)pyridin-3-yl)-10,10-dimethyl-5,7-dioxo-6^1,6^2,6^3,6^4,6^5,6^6-hexahydro-1H-8-oxa-2(4,2)-thiazola-1(5,3)-indola-6(1,3)-pyridazinacycloundecaphane-4-yl)-2-methylcyclopropane-1-carboxamide], the IC50 in the experiment on AsPC-1 (G12D) (setting [1]) is 10 nM; in the experiment with SW480 (G12V) (Homo sapiens) it was 3.4 nM.

As for `CCn1c(-c2cc(-c3ccc4c(c3)CN(C)C4)cnc2C(C)OC)c2c3cc(ccc31)-c1csc(n1)CC(NC(=O)C1CC1C)C(=O)N1CCCC(N1)C(=O)OCC(C)(C)C2` [Compound 2′, (1S,2S)-N-((6^3S,4S,Z)-1^1-ethyl-1^2-(2-((S)-1-methoxyethyl)-5-(2-methylisoindolin-5-yl)pyridin-3-yl)-10,10-dimethyl-5,7-dioxo-6^1,6^2,6^3,6^4,6^5,6^6-hexahydro-1^1H-8-oxa-2(4,2)-thiazola-1(5,3)-indola-6(1,3)-pyridazinacycloundecaphane-4-yl)-2-methylcyclopropane-1-carboxamide], the concentration for half-maximal inhibition (IC50) in the experiment with AsPC-1 (G12D) (AsPC-1 pancreas cell line) stood at 2500 nM; in the experiment on SW480 (G12V), 820 nM.

With `CCn1c(-c2cc(-c3cccc(CN4CCOCC4)n3)cnc2[C@H](C)OC)c2c3cc(ccc31)-c1csc(n1)C[C@H](NC(=O)C1C[C@@H]1C)C(=O)N1CCC[C@H](N1)C(=O)OCC(C)(C)C2` (stereo partly drawn) [Compound 13, (1S,2S)-N-((6^3S,4S,Z)-1^1-ethyl-1^2-(6′-((S)-1-methoxyethyl)-6-(morpholinomethyl)-[2,3′-bipyridin]-5′-yl)-10,10-dimethyl-5,7-dioxo-6^1,6^2,6^3,6^4,6^5,6^6-hexahydro-1^1H-8-oxa-2(4,2)-thiazola-1(5,3)-indola-6(1,3)-pyridazinacycloundecaphane-4-yl)-2-methylcyclopropane-1-carboxamide], the IC50 in the experiment on AsPC-1 (G12D) (setting [1]) is 2.5 nM; in the experiment with SW480 (G12V) (Homo sapiens) it was 2 nM.

Regarding `CCn1c(-c2cc(-c3ncc(CN4CCOCC4)cn3)cnc2[C@H](C)OC)c2c3cc(ccc31)-c1csc(n1)C[C@H](NC(=O)C1C[C@@H]1C)C(=O)N1CCC[C@H](N1)C(=O)OCC(C)(C)C2` (stereo partly drawn) [Compound 14, (1S,2S)-N-((6^3S,4S,Z)-1^1-ethyl-1^2-(2-((S)-1-methoxyethyl)-5-(5-(morpholinomethyl)pyrimidin-2-yl)pyridin-3-yl)-10,10-dimethyl-5,7-dioxo-6^1,6^2,6^3,6^4,6^5,6^6-hexahydro-1^1H-8-oxa-2(4,2)-thiazola-1(5,3)-indola-6(1,3)-pyridazinacycloundecaphane-4-yl)-2-methylcyclopropane-1-carboxamide], the IC50 amounted to 1.7 nM in the experiment on AsPC-1 (G12D) (setting [1]) and 2.8 nM in the experiment on SW480 (G12V) (Homo sapiens).

Take `CCn1c(-c2cc(-c3cc(CN4CCOCC4)on3)cnc2C(C)OC)c2c3cc(ccc31)-c1csc(n1)CC(NC(=O)C1CC1C)C(=O)N1CCCC(N1)C(=O)OCC(C)(C)C2` [Compound 22′, (1S,2S)-N-((6^3S,4S,Z)-1^1-ethyl-1^2-(2-((S)-1-methoxyethyl)-5-(5-(morpholinomethyl)isoxazol-3-yl)pyridin-3-yl)-10,10-dimethyl-5,7-dioxo-6^1,6^2,6^3,6^4,6^5,6^6-hexahydro-1^1H-8-oxa-2(4,2)-thiazola-1(5,3)-indola-6(1,3)-pyridazinacycloundecaphane-4-yl)-2-methylcyclopropane-1-carboxamide]: the half-maximal inhibitory concentration (IC50) in the experiment with AsPC-1 (G12D) (AsPC-1 pancreas cell line) is more than 10000 nM; in the experiment on SW480 (G12V), 161 nM.

For the compound `CCn1c(-c2cc(-c3cc(CNC)on3)cnc2C(C)OC)c2c3cc(ccc31)-c1csc(n1)CC(NC(=O)C1CC1C)C(=O)N1CCCC(N1)C(=O)OCC(C)(C)C2` [Compound 23′, (1S,2S)-N-((6^3S,4S,Z)-1^1-ethyl-1^2-(2-((S)-1-methoxyethyl)-5-(5-((methylamino)methyl)isoxazol-3-yl)pyridin-3-yl)-10,10-dimethyl-5,7-dioxo-6^1,6^2,6^3,6^4,6^5,6^6-hexahydro-1^1H-8-oxa-2(4,2)-thiazola-1(5,3)-indola-6(1,3)-pyridazinacycloundecaphane-4-yl)-2-methylcyclopropane-1-carboxamide], the IC50 with AsPC-1 (G12D) (AsPC-1 pancreas cell line) was determined as 2370 nM; with SW480 (G12V), 1340 nM.

Regarding `CCn1c(-c2cc(-c3cc(C4CCCN4C)on3)cnc2C(C)OC)c2c3cc(ccc31)-c1csc(n1)CC(NC(=O)C1CC1C)C(=O)N1CCCC(N1)C(=O)OCC(C)(C)C2` [Compound 24′, (1S,2S)-N-((6^3S,4S,Z)-1^1-ethyl-1^2-(2-((S)-1-methoxyethyl)-5-(5-((R)-1-methylpyrrolidin-2-yl)isoxazol-3-yl)pyridin-3-yl)-10,10-dimethyl-5,7-dioxo-6^1,6^2,6^3,6^4,6^5,6^6-hexahydro-1^1H-8-oxa-2(4,2)-thiazola-1(5,3)-indola-6(1,3)-pyridazinacycloundecaphane-4-yl)-2-methylcyclopropane-1-carboxamide], the IC50 with AsPC-1 (G12D) (AsPC-1 pancreas cell line) is more than 10000 nM; in the experiment on SW480 (G12V) it was 3610 nM.

As to `CCn1c(-c2cc(-c3cc([C@@H]4CCCN4C)on3)cnc2[C@H](C)OC)c2c3cc(ccc31)-c1csc(n1)C[C@H](NC(=O)[C@H]1C[C@@H]1C)C(=O)N1CCC[C@H](N1)C(=O)OCC(C)(C)C2` [Compound 25′, (1S,2S)-N-((6^3S,4S,Z)-1^1-ethyl-1^2-(2-((S)-1-methoxyethyl)-5-(5-((S)-1-methylpyrrolidin-2-yl)isoxazol-3-yl)pyridin-3-yl)-10,10-dimethyl-5,7-dioxo-6^1,6^2,6^3,6^4,6^5,6^6-hexahydro-1^1H-8-oxa-2(4,2)-thiazola-1(5,3)-indola-6(1,3)-pyridazinacycloundecaphane-4-yl)-2-methylcyclopropane-1-carboxamide], the values for the IC50 in the experiment on AsPC-1 (G12D) (AsPC-1 pancreas cell line) and with SW480 (G12V) were 3420 nM and more than 10000 nM, respectively.

Take `CCn1c(-c2cc(-c3cc(C4CN(C)CCO4)on3)cnc2C(C)OC)c2c3cc(ccc31)-c1csc(n1)CC(NC(=O)C1C(C)C1C)C(=O)N1CCCC(N1)C(=O)OCC(C)(C)C2` [Compound 27′, (1r,2R,3S)-N-((6^3S,4S,Z)-1^1-ethyl-1^2-(2-((S)-1-methoxyethyl)-5-(5-((S)-4-methylmorpholin-2-yl)isoxazol-3-yl)pyridin-3-yl)-10,10-dimethyl-5,7-dioxo-6^1,6^2,6^3,6^4,6^5,6^6-hexahydro-1^1H-8-oxa-2(4,2)-thiazola-1(5,3)-indola-6(1,3)-pyridazinacycloundecaphane-4-yl)-2,3-dimethylcyclopropane-1-carboxamide]: the IC50 came to 7.7 nM with AsPC-1 (G12D) (AsPC-1 pancreas cell line) and 50 nM in the experiment with SW480 (G12V).

On to `CCn1c(-c2cc(-c3cc(C4CCN(C)C4)on3)cnc2C(C)OC)c2c3cc(ccc31)-c1csc(n1)CC(NC(=O)C1C(C)C1C)C(=O)N1CCCC(N1)C(=O)OCC(C)(C)C2` [Compound 29′, (1r,2R,3S)-N-((6^3S,4S,Z)-1^1-ethyl-1^2-(2-((S)-1-methoxyethyl)-5-(5-((R)-1-methylpyrrolidin-3-yl)isoxazol-3-yl)pyridin-3-yl)-10,10-dimethyl-5,7-dioxo-6^1,6^2,6^3,6^4,6^5,6^6-hexahydro-1^1H-8-oxa-2(4,2)-thiazola-1(5,3)-indola-6(1,3)-pyridazinacycloundecaphane-4-yl)-2,3-dimethylcyclopropane-1-carboxamide], for which the results for the IC50 in the experiment with AsPC-1 (G12D) (AsPC-1 pancreas cell line) and in the experiment on SW480 (G12V) were 5.3 nM and 11.4 nM, respectively.
